Consider two compounds from BindingDB's records for doi:10.1021/jm000484+ (Abbott Laboratories, 2001).

Assay [1] in a line: In vitro immunosuppression in stimulated T cells expressing Voltage-gated potassium channel subunit Kv1.3.
Assay [2] is described as follows: In vitro immunosuppression in stimulated T cells expressing Voltage-gated potassium channel subunit Kv1.3; Range is 1-10.

SMILES strings stand for the structures.

A word on the EC50: it is the concentration giving half of the maximal effect. Higher therefore signals a less potent agent. With `CCC/N=c1\ccn(Cc2ccccc2)c2cc(Cl)ccc12`, a half-maximal response in assay [1] (EC50) required 1000 nM.
In general, IC50 refers to the concentration that gives 50% inhibition. The low end stands for greater potency in that assay, the high end for weaker potency in that assay. In the case of `CCNC(=O)c1cc(/C=C/CCc2ccccc2)ccc1-c1ccc(Cl)cc1` [4'-Chloro-4-((E)-4-phenyl-but-1-enyl)-biphenyl-2-carboxylic acid ethylamide], in assay [2], the IC50 was 1000 nM.
